From patent US4857516A, “Coumaran derivatives and their pharmaceutical use” (Takeda Chemical Industries, Ltd., priority 1986, dated 1989)

Test system: excitatory behavior induced by FeCl2 in mice
Assay: Excitatory behavior induced by spinal intrathecal injection of FeCl2 in mice
Type: in vivo, mouse
Conditions: 100 mg/kg p.o.
Method: Male Slc:ICP mice (5 weeks) were used. Each group consisted of 10 mice. 5 μl of 50 mM FeCl2 in saline was injected into spinal subarchnoid space betwen the 1st sacral and the 6th lumbar segment, the behavioral responses were observed from 15 min. to 1 hr. after the intrathecal injection of FeCl2 and scored as follows.
Score Behavioral responses
0: normal (no abnormal behavior)
1: vigorously biting lower abdomen or lower extremities
(a) extremely biting lower body with rolling
(b) hyperreactivity and agressive to external stmuli
at least one of above three behavioral changes were observed
4: tonic convulsion or paralysis of lower extremities.
The test compounds (100 mg/kg) were orally administered 30 min. prior to FeCl2 injection.

SMILES: Cc1c(C)c2c(c(C)c1O)C(c1ccc(Cl)cc1)C(C)(C)O2 (centres unmarked) [Example 13]
- Score (mean behavioral score) (30 min. prior to FeCl2, 0 normal to 5 death): 0.7
- Percent inhibition (of mean score) (vs vehicle p.o.): 83%
